The supplement of paper PMC4862054

Columns and labels:
Conditions in all cases: incubation time: 72 h
[1] = system: DU-4475; test: normalised viability (% of control), CellTiter-Blue; higher = more viable cells (about 100 = DMSO control)
Experimental: (§1)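 DSRT, CellTiter-Blue viability, 72 h incubation. Signal is normalised to DMSO and benzethonium chloride controls. Value is the normalised response at dose 9.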

[2] = system: CAL-85-1; test: as above
Experimental: as §1

[3] = system: HDQ-P1; test: as above
Experimental: as §1

[4] = system: CAL-148; test: as above
Experimental: as §1

[5] = system: MDA-MB-453; test: as above
Experimental: as §1

[6] = system: CAL-51; test: as above
Experimental: as §1

[7] = system: MDA-MB-468; test: normalised response (% of control), CellTiter-Glo; higher = more viable cells (100 = DMSO, 0 = benzethonium chloride kill control)
Experimental: (§2)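 DSRT, 72 h incubation, CellTox Green / CellTiter-Glo readout. Signal is normalised to DMSO and benzethonium chloride controls. Value is the normalised response at the highest dose.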

[8] = system: MFM-223; test: as above
Experimental: as §2

[9] = system: HCC1143; test: as above
Experimental: as §2

[10] = system: HDQ-P1; test: as above
Experimental: as §2

[11] = system: HCC1937; test: as above
Experimental: as §2

[12] = system: HCC1599; test: as above
Experimental: as §2

[13] = system: CAL-148; test: as above
Experimental: as §2

[14] = system: BT-474; test: as above
Experimental: as §2

[15] = system: CAL-51; test: as above
Experimental: as §2

[16] = system: MDA-MB-231; test: as above
Experimental: as §2

[17] = system: MDA-MB-436; test: normalised viability (% of control), CellTiter-Blue; higher = more viable cells (about 100 = DMSO control)
Outline: (§3)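 Each entry is normalised viability at a single listed concentration within a series. It comes from breast cancer cell lines incubated 72 h with compound in 384-well plates, then measured with CellTiter-Blue fluorescence at 560/590 nm. Every plate was normalised between vehicle (100) and a positive kill control (0).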

[18] = system: HCC1937; test: as above
Outline: as §3

[19] = system: DU-4475; test: normalised viability (% of control), CellTiter-Blue; higher = more viable cells (about 100 = DMSO control); remark: listed apart in the source
Experimental: (§4)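 DSRT, CellTiter-Blue viability, 72 h incubation. Signal is normalised to DMSO and benzethonium chloride controls. Value is the normalised response at dose 7.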

[20] = system: CAL-85-1; test: as above; remark: listed apart in the source
Experimental: as §4

[21] = system: HDQ-P1; test: as above; remark: listed apart in the source
Experimental: as §4

[22] = system: CAL-148; test: as above; remark: listed apart in the source
Experimental: as §4

[23] = system: MDA-MB-453; test: as above; remark: listed apart in the source
Experimental: as §4

[24] = system: CAL-51; test: as above; remark: listed apart in the source
Experimental: as §4

Row | SMILES | normalised viability [19] | normalised viability [20] | normalised viability [21] | normalised viability [22] | normalised viability [23] | normalised viability [24] | also measured
1 | COc1cccc2c1C(=O)c1c(O)c3c(c(O)c1C2=O)C[C@@](O)(C(C)=O)C[C@@H]3O[C@H]1C[C@H](N)[C@H](O)[C@H](C)O1 [Daunorubicin] (1000 nM) |  |  |  |  |  |  | normalised viability [1]: -1.24%; normalised viability [2]: 12.2%; normalised viability [3]: 16%; normalised viability [4]: -0.25%; normalised viability [5]: 11.6%; normalised viability [6]: 1.88%; normalised response [7]: 8.42%; normalised response [8]: 34.7%; normalised response [9]: 23.9%; normalised response [10]: 27.9%; normalised response [11]: 32.1%; normalised response [12]: 19.3%; normalised response [13]: 0.79%; normalised response [14]: 19%; normalised response [15]: 3.08%; normalised response [16]: 8.81%
2 | CC(C)(C)c1cc(NC(=O)Nc2ccc(-c3cn4c(n3)sc3cc(OCCN5CCOCC5)ccc34)cc2)no1 [Quizartinib] |  |  |  |  |  |  | normalised viability ([17]; 1 nM): 104%; normalised viability ([17]; 100 nM): 45.7%; normalised viability ([17]; 1000 nM): 87.6%; normalised viability ([18]; 1 nM): 59.2%; normalised viability ([18]; 100 nM): 81.8%; normalised viability ([18]; 1000 nM): 99.8%
3 | Cn1c(=O)c(F)c(Nc2ccc(I)cc2F)c2c(=O)n(C[C@@H](O)CO)cnc21 [TAK-733] (100 nM) | 0.99% | 60.2% | 92% | 95% | 89.1% | 77.7% | 
4 | C[C@@H]1C=C2C(=O)O[C@@H]3CC[C@H](C1)[C@]23O [Galiellalactone] (50000 nM) |  |  |  |  |  |  | normalised viability [1]: 77.4%; normalised viability [2]: 9.47%; normalised viability [3]: 41.7%; normalised viability [4]: 22.4%; normalised viability [5]: 9.52%; normalised viability [6]: 43.1%; normalised response [7]: 39.1%; normalised response [8]: 105%; normalised response [9]: 100%; normalised response [10]: 93.9%; normalised response [11]: 107%; normalised response [12]: 90.3%; normalised response [13]: 124%; normalised response [14]: 108%; normalised response [15]: 71.1%; normalised response [16]: 106%
5 | C[C@@H]1C=C2C(=O)O[C@@H]3CC[C@H](C1)[C@]23O [Galiellalactone] (5000 nM) | 118% | 72.6% | 98% | 147% | 73.7% | 105% | 
6 | COc1ccc(C2=N[C@@H](c3ccc(Cl)cc3)[C@@H](c3ccc(Cl)cc3)N2C(=O)N2CCNC(=O)C2)c(OC(C)C)c1 [Nutlin-3] (1000 nM) | 94.7% | 88.9% | 119% | 91.6% | 97.2% | 95.8% | 
7 | COc1ncc(-c2ccc3nccc(-c4ccnnc4)c3c2)cc1NS(=O)(=O)c1ccc(F)cc1F (100 nM) | 61.5% | 30.5% | 22.3% | 25% | 7.68% | 17.2% | 
8 | CCCC(CCC)C(=O)O [Valproic acid] |  |  |  |  |  |  | normalised viability ([17]; 10 nM): 96.6%; normalised viability ([17]; 1000 nM): 89%; normalised viability ([17]; 10000 nM): 132%; normalised viability ([18]; 10 nM): 126%; normalised viability ([18]; 1000 nM): 86%; normalised viability ([18]; 10000 nM): 92.6%
9 | COC1=C2C[C@@H](C)C[C@H](OC)[C@H](O)[C@@H](C)/C=C(\C)[C@H](OC(N)=O)[C@@H](OC)/C=C\C=C(/C)C(=O)NC(=CC1=O)C2=O [Geldanamycin] (1000 nM) | 0.05% | 23.7% | 17.8% | 14.5% | 7.25% | 26.2% | 
10 | COc1cccc2c1C(=O)c1c(O)c3c(c(O)c1C2=O)C[C@@](O)(C(C)=O)C[C@@H]3O[C@H]1C[C@H](N)[C@H](O)[C@H](C)O1 [Daunorubicin] (100 nM) | 41.7% | 77.2% | 94.9% | 30.8% | 94.8% | 38% | 
11 | CN1CCN(c2ccc3nc(-c4c(N)c5c(F)cccc5[nH]c4=O)[nH]c3c2)CC1 [Dovitinib] (1000 nM) | 94.7% | 78.3% | 69.7% | 90.7% | 91.4% | 116% | 
12 | c1ccc(C2CN3CCSC3=N2)cc1 (stereo not given) [Tetramisole] |  |  |  |  |  |  | normalised viability ([17]; 10 nM): 110%; normalised viability ([17]; 1000 nM): 111%; normalised viability ([17]; 10000 nM): 113%; normalised viability ([18]; 10 nM): 117%; normalised viability ([18]; 1000 nM): 105%; normalised viability ([18]; 10000 nM): 103%
13 | Cn1cnc2c(F)c(Nc3ccc(Br)cc3F)c(C(=O)NOCCO)cc21 [MEK-162] (100 nM) | 25.7% | 82.1% | 107% | 98.8% | 112% | 101% | 
14 | CC(C)C[C@H](NC(=O)[C@H](Cc1ccccc1)NC(=O)c1cnccn1)B(O)O [Bortezomib] (100 nM) | 2.48% | 5.3% | 1.22% | 18.2% | 19.4% | 2.63% | 
15 | CC(C)(C)c1cc(NC(=O)Nc2ccc(-c3cn4c(n3)sc3cc(OCCN5CCOCC5)ccc34)cc2)no1 [Quizartinib] (100 nM) | 115% | 89.6% | 95% | 98.8% | 96.6% | 114% | 
